From paper PMC10675646 (Viruses, 2023) come the findings set out here.

This assay has as its target T1, 6xHis-SUMO-TRAF2 (residues 315–501) TRAF-C domain (Homo sapiens, UniProt Q12933).
T1 sequence (Q12933 315-501): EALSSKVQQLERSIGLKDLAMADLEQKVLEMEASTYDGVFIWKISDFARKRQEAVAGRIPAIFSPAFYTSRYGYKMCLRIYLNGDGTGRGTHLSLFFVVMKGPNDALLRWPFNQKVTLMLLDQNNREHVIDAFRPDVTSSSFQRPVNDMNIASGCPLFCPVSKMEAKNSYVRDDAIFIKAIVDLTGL
The experiment in a line: Fluorescence polarization (FP) binding assay, TRAF2 TRAF-C domain. Conditions: summary range stated for TRAF2 and TRAF3 TRAF-C together, read-out: Binding affinities between the PIQAS peptide and SUMO-TRAF-C proteins (range). (In general: In fluorescence polarisation assays a small probe gives low polarisation when free and higher when bound to something large.)

pKd: −log10 of the molar value. Where a SMILES comes first, the peptide text is derived from it. The star is where a group is joined. 5FAM = O=C1OC2(c3ccc(O)cc3Oc3cc(O)ccc32)c2ccc(C(=O)*)cc21; Ahx = NCCCCCC(=O)O

As to `CC[C@H](C)[C@H](NC(=O)[C@@H]1CCCN1C(=O)CCCCCNC(=O)c1ccc2c(c1)C(=O)OC21c2ccc(O)cc2Oc2cc(O)ccc21)C(=O)N[C@@H](CCC(N)=O)C(=O)N[C@@H](C)C(=O)N[C@@H](CO)C(N)=O` [PIQAS peptide] ({5FAM-Ahx}-PIQAS-NH2), the pKd is 3.70 to 3.82.
